Several values for one entry are separate records, joined by “and”; a condition that tells them apart may be missing. Equal entries are not always repeated.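 Briefly, cells in 96-well plates were exposed to five compound concentrations for 48 h, and endpoints were estimated by linear interpolation. The concentration for 50% growth inhibition is given as GI50. TGI is the concentration that stops growth completely.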

Among the data in PubChem BioAssay (NCI) are TGI and GI50 values, retold here.

Some test systems named below: A498 renal; HCT-116 colon; HOP-62 NSCLC; MDA-MB-435; NCI-H460 lung; RXF 393 renal; SF-539 CNS; TK-10 renal; U251 CNS; UACC-257 melanoma.
Test in all cases: NCI anticancer screen, dose series, 48 h

Regarding `Cn1c2ccccc2c(=O)c2c(O)cc3c(c21)CC(C1(C)CO1)O3` (stereo not given), the TGI with A498 renal was found to be 33.9 µM; in the assay with HCT-116 colon, 3.06 µM; in the assay with HOP-62 NSCLC, 11.3 µM; in the assay on MDA-MB-435, 3.07 µM; with NCI-H460 lung, 13.6 µM; in the assay with RXF 393 renal, 2.85 µM. Besides, the TGI in the assay on SF-539 CNS worked out at 10.8 µM; with TK-10 renal, 42 µM; in the assay on U251 CNS it was 11.7 µM; with UACC-257 melanoma, 13.1 µM.
As to `COc1cc2oc(-c3ccc(O)cc3O)c(CC=C(C)C)c(=O)c2c(O)c1/C=C/C(C)C`, the TGI in the assay on A498 renal amounted to 5.12 µM; in the assay with HCT-116 colon, 3.93 µM; with HOP-62 NSCLC, 5.93 µM; with MDA-MB-435, 4.49 µM; in the assay with NCI-H460 lung, 14.5 µM; in the assay on RXF 393 renal, 4.61 µM. In addition, the TGI in the assay with SF-539 CNS was 10.4 µM; in the assay with TK-10 renal, 14.1 µM; in the assay on U251 CNS, 6.12 µM; in the assay on UACC-257 melanoma it was 17.5 µM.
For the compound `NC1CCC(Nc2nc(NCc3cc(Cl)ccc3O)c3ncn(C4CCCC4)c3n2)CC1` (stereo not given), the GI50 with A498 renal was 0.211 µM; with HCT-116 colon it was 0.0644 µM; in the assay on HOP-62 NSCLC, 0.245 µM; with MDA-MB-435, 0.149 µM; in the assay on NCI-H460 lung, 0.125 µM; with RXF 393 renal, 0.12 µM. In addition, the GI50 in the assay on SF-539 CNS is 0.166 µM; in the assay with TK-10 renal it was 0.332 µM; with U251 CNS, 0.14 µM; in the assay on UACC-257 melanoma, 0.18 µM. Further, the TGI is 0.484 µM with A498 renal; 0.66 µM in the assay on HCT-116 colon; 0.813 µM with HOP-62 NSCLC; 0.328 µM with MDA-MB-435; 0.958 µM with NCI-H460 lung; 0.277 µM in the assay on RXF 393 renal. The TGI in the assay on SF-539 CNS was 0.341 µM; in the assay on TK-10 renal, 0.979 µM; in the assay on U251 CNS it was 0.444 µM; in the assay with UACC-257 melanoma it was 0.387 µM.
`Cc1ccc(/C=C/C(=N/N=C(N)N)c2ccccc2)cc1`: the GI50 with A498 renal was 1.04 µM; in the assay on HCT-116 colon, 3.05 µM; in the assay with HOP-62 NSCLC it was 3.57 µM; with MDA-MB-435, 0.432 µM; in the assay with NCI-H460 lung, 3.1 µM; with RXF 393 renal it was 1.62 µM. Also, the GI50 with SF-539 CNS was 2.75 µM; in the assay with TK-10 renal, 3.89 µM; in the assay on U251 CNS it was 3.1 µM; in the assay with UACC-257 melanoma, 2.96 µM. Moreover, the TGI is 4.92 µM in the assay with A498 renal; 12.2 µM in the assay on HCT-116 colon; 16 µM with HOP-62 NSCLC; 4.93 µM in the assay on MDA-MB-435; 10.1 µM in the assay on NCI-H460 lung; 4.03 µM in the assay with RXF 393 renal. For the same compound, the TGI was determined as 8.65 µM in the assay with SF-539 CNS, 12 µM with TK-10 renal, 12.5 µM in the assay with U251 CNS and 12.9 µM in the assay with UACC-257 melanoma.
Turning to `c1ccc(Nc2nc(-c3ccccn3)cs2)nc1`, the GI50 was 0.266 µM with A498 renal; 0.326 µM in the assay with HCT-116 colon; 0.619 µM in the assay on HOP-62 NSCLC; 0.689 µM in the assay on MDA-MB-435; 0.29 µM in the assay with NCI-H460 lung; 1.98 µM with RXF 393 renal. Also, the GI50 was 0.825 µM with SF-539 CNS, 0.573 µM with TK-10 renal, 0.332 µM in the assay with U251 CNS and 0.496 µM in the assay with UACC-257 melanoma. In addition, the TGI was 13.5 µM with A498 renal; 21.6 µM with HCT-116 colon; more than 100 µM in the assay on HOP-62 NSCLC; more than 53.5 µM in the assay with MDA-MB-435; 2.61 µM with NCI-H460 lung; more than 100 µM in the assay on RXF 393 renal. Also, the TGI in the assay with SF-539 CNS is more than 88.7 µM; in the assay on TK-10 renal, more than 100 µM; in the assay with U251 CNS, more than 43.2 µM; in the assay on UACC-257 melanoma it was 15.4 µM.
`O=C1C=CC(=Nc2ccccc2)c2ccccc21`: the TGI in the assay on A498 renal was 39.4 µM; in the assay on HCT-116 colon it was 24.4 µM; in the assay on HOP-62 NSCLC, 25.3 µM; in the assay with MDA-MB-435 it was 3.42 µM; in the assay with NCI-H460 lung it was 13.8 µM; in the assay with RXF 393 renal, 23.2 µM. In addition, the TGI with SF-539 CNS is 29 µM; with TK-10 renal, 31.6 µM; in the assay on U251 CNS, 20.5 µM; in the assay on UACC-257 melanoma it was 8.39 µM.
Consider `CC[C@@H](C(=O)[C@H](C)[C@H](O)[C@@H](C)[C@H]1O[C@H]([C@@H](CC)C(=O)O)CC[C@H]1C)C1O[C@]2(C=C[C@@H](O)[C@]3(CC[C@@](C)([C@H]4CC[C@](O)(CC)[C@H](C)O4)O3)O2)[C@H](C)C[C@@H]1C` (stereo not given in full), for which the GI50 was 0.044 µM with A498 renal; 0.722 µM in the assay with HCT-116 colon; 0.532 µM in the assay with HOP-62 NSCLC; 1.08 µM in the assay with MDA-MB-435; 0.4 µM with NCI-H460 lung; 0.0621 µM in the assay on RXF 393 renal. For the same compound, the GI50 in the assay on SF-539 CNS was 0.328 µM; in the assay on TK-10 renal, 1.68 µM; in the assay on U251 CNS, 0.113 µM; in the assay with UACC-257 melanoma it was 0.23 µM. For the same compound, the TGI in the assay on A498 renal came out at 0.48 µM; in the assay on HCT-116 colon, 35.7 µM; with HOP-62 NSCLC, 21.6 µM; in the assay on MDA-MB-435, 2.56 µM; in the assay on NCI-H460 lung, 10.3 µM; with RXF 393 renal, 1.47 µM. Besides, the TGI in the assay on SF-539 CNS came to 4.05 µM; in the assay on TK-10 renal, 83.1 µM; in the assay with U251 CNS it was 11.5 µM; in the assay with UACC-257 melanoma it was 6.98 µM.
In the case of `CCC(CCC(C)C1CCC2C3CC=C4CC(OC5OC(CO)C(O)C(O)C5O)CCC4(C)C3CCC12C)C(C)C` (stereo not given), the TGI with A498 renal, in the assay with HCT-116 colon, with HOP-62 NSCLC, with MDA-MB-435, in the assay with NCI-H460 lung and in the assay on RXF 393 renal was more than 100 µM throughout. Further, the TGI in the assay with SF-539 CNS, with TK-10 renal, in the assay with U251 CNS and in the assay on UACC-257 melanoma was more than 100 µM throughout.
As to `CC(=O)c1ccc(Nc2nc(Nc3ccc(F)cc3)nc(Nc3ccc(F)cc3)n2)cc1`, the GI50 is 4.69 µM with A498 renal; 12.7 µM in the assay with HCT-116 colon; 13.7 µM in the assay on HOP-62 NSCLC; 3.24 µM in the assay on MDA-MB-435; 8.65 µM in the assay on NCI-H460 lung; 3.15 µM with RXF 393 renal. Further, the GI50 in the assay with SF-539 CNS was 3.07 µM; in the assay with TK-10 renal, 15.6 µM; in the assay on U251 CNS, 11.7 µM; in the assay on UACC-257 melanoma, 14.3 µM. The TGI was 18.3 µM in the assay on A498 renal; more than 100 µM with HCT-116 colon; 32.5 µM in the assay with HOP-62 NSCLC; more than 100 µM in the assay on MDA-MB-435; more than 100 µM with NCI-H460 lung; 11.5 µM with RXF 393 renal. Besides, the TGI is 12.1 µM in the assay on SF-539 CNS, 42.2 µM in the assay with TK-10 renal, 30.1 µM in the assay on U251 CNS and more than 100 µM with UACC-257 melanoma.
Turning to `Cc1cccc2nc3cccc(C(=O)NCCNCCNCCNC(=O)c4cccc5nc6cccc(C)c6nc45)c3nc12`, the GI50 in the assay on A498 renal was less than 0.01 µM; in the assay with HCT-116 colon it was less than 0.01 µM; in the assay with HOP-62 NSCLC, less than 0.01 µM; in the assay with MDA-MB-435 it was less than 0.01 µM; with NCI-H460 lung, less than 0.01 µM; with RXF 393 renal, less than 0.0149 µM. Further, the GI50 with SF-539 CNS is less than 0.0254 µM; in the assay on TK-10 renal, less than 0.0147 µM; in the assay on U251 CNS it was less than 0.01 µM; in the assay with UACC-257 melanoma, 0.0557 µM. Further, the TGI was 0.363 µM in the assay with A498 renal; more than 35.8 µM with HCT-116 colon; 1.19 µM in the assay with HOP-62 NSCLC; 1.41 µM with MDA-MB-435; 0.19 µM in the assay with NCI-H460 lung; 0.228 µM in the assay with RXF 393 renal. The TGI with SF-539 CNS worked out at 4.06 µM; in the assay on TK-10 renal, 0.846 µM; in the assay on U251 CNS, 1.04 µM; in the assay on UACC-257 melanoma it was 1.76 µM.
On to `COc1ccc2c(Cc3c4ccccc4cc4ccccc34)cncc2c1O`, for which the TGI in the assay on A498 renal was 23.9 µM; in the assay on HCT-116 colon, 16.1 µM; in the assay with HOP-62 NSCLC it was 22.4 µM; with MDA-MB-435 it was 0.622 µM; with NCI-H460 lung, 3.94 µM; in the assay with RXF 393 renal it was more than 21.6 µM. Also, the TGI in the assay on SF-539 CNS amounted to 0.546 µM; with TK-10 renal, 17.6 µM; in the assay on U251 CNS it was 7.71 µM; in the assay with UACC-257 melanoma it was 14 µM.
For `CN1CC[C@]2(c3cccc(O)c3)CC(=O)/C(=C/c3ccccc3)[C@H]1C2`, the TGI in the assay with A498 renal was found to be 21.1 µM; with HCT-116 colon it was 7.29 µM; with HOP-62 NSCLC, 10.8 µM; in the assay with MDA-MB-435, 8.96 µM; with NCI-H460 lung, 6.32 µM; with RXF 393 renal, 8.03 µM. Moreover, the TGI in the assay with SF-539 CNS turned out to be 5.2 µM; in the assay with TK-10 renal, 13.2 µM; with U251 CNS, 9.92 µM; in the assay on UACC-257 melanoma, 9.72 µM. The GI50 in the assay on HOP-62 NSCLC is 3.21 µM; in the assay with MDA-MB-435, 2.08 µM; in the assay with RXF 393 renal, 2.5 µM; in the assay on TK-10 renal, 6.32 µM; in the assay on UACC-257 melanoma it was 2.6 µM.
Take `CSc1ccc2c(c1)N(CCC1CCCCN1C)c1ccccc1S2` (stereo not given): the GI50 in the assay on A498 renal was 4.99 µM and 13.2 µM; in the assay with HCT-116 colon, 5.58 µM and 3.3 µM; in the assay on HOP-62 NSCLC, 9.08 µM and 9.59 µM; in the assay on MDA-MB-435, 3.48 µM and 3.1 µM; with NCI-H460 lung it was 4.52 µM and 2.03 µM; in the assay with RXF 393 renal it was 3.2 µM and 1.56 µM. In addition, the GI50 with SF-539 CNS is 14.1 µM and 5.63 µM; with TK-10 renal, 13.8 µM and 4.11 µM; in the assay with U251 CNS it was 5.92 µM and 3.53 µM; in the assay with UACC-257 melanoma, 3.08 µM and 2.14 µM. Besides, the TGI in the assay on A498 renal was 22.2 µM and 28.7 µM; with HCT-116 colon it was 19 µM and 12.9 µM; with HOP-62 NSCLC it was 24 µM and 25.9 µM; with MDA-MB-435 it was 13.6 µM and 11.1 µM; in the assay on NCI-H460 lung, 17.9 µM and 4.28 µM; with RXF 393 renal, 15.4 µM and 5.23 µM. Moreover, the TGI in the assay with SF-539 CNS is 28.2 µM and 18.2 µM; in the assay on TK-10 renal it was 28.5 µM and 13.4 µM; with U251 CNS, 19.2 µM and 12.2 µM; in the assay with UACC-257 melanoma, 11.6 µM and 6.3 µM.
